In paper PMC7488365 (Acta Pharmaceutica Sinica. B, 2019):

Legend:
HGC-27 cells [1] = assay: EdU incorporation assay; assay type: cell-based, human
USP28 [2] = target: T1, USP28 (Homo sapiens, UniProt Q96RU2); assay: Bio-layer interferometry; assay type: binding
T1 sequence (Q96RU2 1-700): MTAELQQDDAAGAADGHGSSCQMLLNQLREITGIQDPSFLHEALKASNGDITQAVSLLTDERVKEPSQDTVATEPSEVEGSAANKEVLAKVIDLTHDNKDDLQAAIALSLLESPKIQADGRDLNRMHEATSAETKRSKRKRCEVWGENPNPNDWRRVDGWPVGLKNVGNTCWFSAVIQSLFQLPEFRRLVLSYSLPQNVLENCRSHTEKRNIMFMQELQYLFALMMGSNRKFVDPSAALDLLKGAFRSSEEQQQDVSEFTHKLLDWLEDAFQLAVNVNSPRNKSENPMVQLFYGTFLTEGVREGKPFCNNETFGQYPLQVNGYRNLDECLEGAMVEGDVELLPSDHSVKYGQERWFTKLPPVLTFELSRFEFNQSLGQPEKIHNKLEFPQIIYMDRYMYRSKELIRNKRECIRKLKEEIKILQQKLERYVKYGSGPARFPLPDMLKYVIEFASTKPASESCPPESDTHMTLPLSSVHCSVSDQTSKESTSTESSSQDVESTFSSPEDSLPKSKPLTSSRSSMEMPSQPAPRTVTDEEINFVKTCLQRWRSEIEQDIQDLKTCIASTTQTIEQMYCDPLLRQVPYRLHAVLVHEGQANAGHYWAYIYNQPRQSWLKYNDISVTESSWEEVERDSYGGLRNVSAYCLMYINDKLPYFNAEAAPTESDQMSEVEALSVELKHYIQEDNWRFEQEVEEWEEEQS

[3] = system: USP28, LSD1 and total c-Myc in HGC-27 cells; assay: Western blotting of USP28, LSD1 and total c-Myc; assay type: cell-based, human; conditions: HGC-27, 3 h, Western blotting
MGC-803 cells [4] = assay: cells; conditions: Homo sapiens, MGC-803, 72 h, read-out: IC50 cell viability MGC-803
USP28 in MGC-803 cells = target: T2, USP28 in MGC-803 cells (Homo sapiens, UniProt Q96RU2); assay: Cellular thermal shift target engagement assay, MGC-803; assay type: cell-based; conditions: MGC-803, 0.75 μmol/L, 3 h, 60 °C
T2 sequence (Q96RU2 1-1077): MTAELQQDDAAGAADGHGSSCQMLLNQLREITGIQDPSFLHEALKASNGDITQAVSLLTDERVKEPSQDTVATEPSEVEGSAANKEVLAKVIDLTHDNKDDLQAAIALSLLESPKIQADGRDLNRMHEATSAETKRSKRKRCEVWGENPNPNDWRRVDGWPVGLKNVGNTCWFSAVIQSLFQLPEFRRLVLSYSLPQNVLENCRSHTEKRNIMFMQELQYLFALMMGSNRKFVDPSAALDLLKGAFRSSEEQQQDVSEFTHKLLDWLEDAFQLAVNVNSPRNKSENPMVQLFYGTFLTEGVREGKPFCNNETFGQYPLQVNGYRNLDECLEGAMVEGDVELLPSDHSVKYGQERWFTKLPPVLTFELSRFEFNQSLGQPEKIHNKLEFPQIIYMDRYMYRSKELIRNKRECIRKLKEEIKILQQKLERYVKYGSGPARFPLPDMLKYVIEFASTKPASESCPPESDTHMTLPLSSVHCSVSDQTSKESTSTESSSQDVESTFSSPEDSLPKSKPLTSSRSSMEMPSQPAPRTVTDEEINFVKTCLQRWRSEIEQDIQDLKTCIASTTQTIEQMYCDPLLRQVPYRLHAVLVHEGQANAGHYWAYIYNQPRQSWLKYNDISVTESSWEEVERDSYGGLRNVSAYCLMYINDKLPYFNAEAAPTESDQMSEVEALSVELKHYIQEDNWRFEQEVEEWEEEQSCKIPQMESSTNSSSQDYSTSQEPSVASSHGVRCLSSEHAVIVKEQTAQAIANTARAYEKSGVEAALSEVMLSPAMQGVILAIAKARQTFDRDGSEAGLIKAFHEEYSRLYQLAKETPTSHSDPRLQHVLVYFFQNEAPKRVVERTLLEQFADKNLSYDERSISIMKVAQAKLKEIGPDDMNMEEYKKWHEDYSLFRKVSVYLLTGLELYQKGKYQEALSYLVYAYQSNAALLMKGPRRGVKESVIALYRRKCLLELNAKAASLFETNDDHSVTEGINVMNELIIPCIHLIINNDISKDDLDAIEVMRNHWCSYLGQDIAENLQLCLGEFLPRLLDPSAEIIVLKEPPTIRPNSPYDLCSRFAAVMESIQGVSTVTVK

HGC-27 cells [5] = assay: MTT cell viability assay, HGC-27; conditions: Homo sapiens, HGC-27, 72 h, read-out: IC50 cell viability HGC-27
USP28 [6] = target: T1, USP28; assay: biochemical; assay type: biochemical; conditions: read-out: Inhibition rate at 12.5 μmol/L (%)
MGC-803 cells [7] = assay: Colony formation, MGC-803; assay type: cell-based, human; conditions: MGC-803, 0.75, 1.5 and 3.0 μmol/L, 8 days
HGC-27 cells [8] = assay: Transwell migration assay, HGC-27; assay type: cell-based, human; conditions: HGC-27, 48 h
GES-1 cells = assay: cells; conditions: Homo sapiens, GES1, 72 h, read-out: IC50 cell viability GES-1
HGC-27 cells [9] = assay: Wound healing assay, HGC-27; assay type: cell-based, human; conditions: HGC-27, 48 h
LSD1 = LSD1 (Homo sapiens, UniProt O60341); assay: Enzymatic inhibitory activity against LSD1; assay type: biochemical
HGC-27 cells [10] = assay: Cell cycle assay; assay type: cell-based, human; conditions: HGC-27, 24 h
HGC-27 cells [11] = assay: Colony formation, HGC-27; assay type: cell-based, human; conditions: HGC-27, 0.75, 1.5 and 3.0 μmol/L, 8 days
MKN45 cells = assay: cells; conditions: Homo sapiens, MKN-45, 72 h, read-out: IC50 cell viability MKN45
MGC-803 cells [12] = assay: Transwell migration assay, MGC-803; assay type: cell-based, human; conditions: MGC-803, 48 h
MGC-803 cells [13] = assay: Wound healing assay, MGC-803; assay type: cell-based, human; conditions: MGC-803, 48 h
USP7 = USP7 (Homo sapiens, UniProt Q93009); assay: Enzymatic inhibitory activity against USP7; assay type: biochemical
HGC-27 cells [14] = assay: Annexin V-FITC/PI apoptosis analysis; assay type: cell-based, human
USP28 in HGC-27 cells = target: T3, USP28 in HGC-27 cells (Homo sapiens, UniProt Q96RU2); assay: Cellular thermal shift target engagement assay, HGC-27; assay type: cell-based; conditions: HGC-27, 0.75 μmol/L, 3 h, 60 °C
T3 sequence (Q96RU2 1-1077): T2 sequence (Q96RU2 1-1077)

USP7, sequence (Q93009 whole entry, species assumed): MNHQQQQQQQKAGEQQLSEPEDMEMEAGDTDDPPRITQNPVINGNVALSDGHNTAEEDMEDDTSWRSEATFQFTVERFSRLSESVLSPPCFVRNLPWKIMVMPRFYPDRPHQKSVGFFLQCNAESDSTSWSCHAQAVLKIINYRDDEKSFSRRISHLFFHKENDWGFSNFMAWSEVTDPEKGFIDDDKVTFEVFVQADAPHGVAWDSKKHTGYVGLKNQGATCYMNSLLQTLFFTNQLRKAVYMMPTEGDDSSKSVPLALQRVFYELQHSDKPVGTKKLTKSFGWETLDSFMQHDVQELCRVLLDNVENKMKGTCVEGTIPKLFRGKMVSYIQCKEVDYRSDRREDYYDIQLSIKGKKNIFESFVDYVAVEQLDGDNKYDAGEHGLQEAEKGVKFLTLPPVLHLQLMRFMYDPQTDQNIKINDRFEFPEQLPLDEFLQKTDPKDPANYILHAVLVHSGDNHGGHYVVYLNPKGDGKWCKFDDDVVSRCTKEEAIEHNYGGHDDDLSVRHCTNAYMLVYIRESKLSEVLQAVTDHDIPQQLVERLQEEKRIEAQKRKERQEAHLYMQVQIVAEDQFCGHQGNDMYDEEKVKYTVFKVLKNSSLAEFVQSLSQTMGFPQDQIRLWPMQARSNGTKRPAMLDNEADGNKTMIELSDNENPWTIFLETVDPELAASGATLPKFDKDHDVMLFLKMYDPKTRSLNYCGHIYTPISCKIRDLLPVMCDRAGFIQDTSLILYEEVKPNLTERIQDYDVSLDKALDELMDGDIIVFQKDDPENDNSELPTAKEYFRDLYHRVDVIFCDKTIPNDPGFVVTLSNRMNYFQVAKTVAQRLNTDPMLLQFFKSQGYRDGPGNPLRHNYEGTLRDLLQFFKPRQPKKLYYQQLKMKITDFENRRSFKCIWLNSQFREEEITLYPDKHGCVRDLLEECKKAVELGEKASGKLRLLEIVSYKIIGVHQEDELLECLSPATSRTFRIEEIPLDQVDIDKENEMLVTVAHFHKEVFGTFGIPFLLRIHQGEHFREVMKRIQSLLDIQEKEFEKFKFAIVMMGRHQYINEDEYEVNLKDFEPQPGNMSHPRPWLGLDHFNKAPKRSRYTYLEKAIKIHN

Compound: CCCSc1nc(NCCN)c2nnn(Cc3ccc(Cl)cc3)c2n1 [Compound 19, N^1-(3-(4-Chlorobenzyl)-5-(propylthio)-3H-[1,2,3]triazolo[4,5-d]pyrimidin-7-yl)ethane-1,2-diamine]
- DNA proliferation (EdU) (HGC-27 cells [1]): suppressed DNA proliferation
- Kd (USP28 [2]): 0.04 µM
- USP28 expression [3]: decreased in a dose-dependent manner
- protein levels of LSD1 and total c-Myc [3]: decreased correspondingly
- IC50 (MGC-803 cells [4]): 4.95 ± 0.33 µM
- USP28 thermal stabilization (CTSA) (USP28 in MGC-803 cells): stabilized
- IC50 (HGC-27 cells [5]): 0.61 ± 0.45 µM
- inhibition at 12.5 µM (USP28 [6]): 90%
- colony formation (MGC-803 cells [7]): dose-dependently inhibited colony formation
- cell migration (Transwell) (HGC-27 cells [8]): apparently inhibited cell migration
- IC50 (GES-1 cells): 9.19 ± 1.15 µM
- wound healing (HGC-27 cells [9]): apparently suppressed the wound healing
- IC50 (LSD1): > 100 µM
- percentage of cells in S phase (HGC-27 cells [10]; 0.18 μmol/L): 36.02%
- percentage of cells in S phase (HGC-27 cells [10]; 0.37 μmol/L): 38.58%
- percentage of cells in S phase (HGC-27 cells [10]; 0.75 μmol/L): 39.27%
- percentage of cells in S phase (HGC-27 cells [10]; 1.5 μmol/L): 42.98%
- colony formation (HGC-27 cells [11]): dose-dependently inhibited colony formation
- IC50 (MKN45 cells): 1.49 ± 0.98 µM
- cell migration (Transwell) (MGC-803 cells [12]): apparently inhibited cell migration
- wound healing (MGC-803 cells [13]): apparently suppressed the wound healing
- IC50 (USP7): > 100 µM
- apoptotic rate (Annexin V-FITC/PI, Q2) (HGC-27 cells [14]; HGC-27, 0.18 μmol/L): 6.5%
- apoptotic rate (Annexin V-FITC/PI, Q2) (HGC-27 cells [14]; HGC-27, 0.37 μmol/L): 9.3%
- apoptotic rate (Annexin V-FITC/PI, Q2) (HGC-27 cells [14]; HGC-27, 0.75 μmol/L): 10.5%
- apoptotic rate (Annexin V-FITC/PI, Q2) (HGC-27 cells [14]; HGC-27, 1.5 μmol/L): 21.2%
- USP28 thermal stabilization (CTSA) (USP28 in HGC-27 cells): stabilized
